Measurements from patent US20190112580A1, “METHODS FOR TREATING CO[…] AND RELATED CULTURED CELLS” (priority 2017, published 2019).

Legend:
[1] = test system: myoblast cell preparation; test: 5-AZA concentration and medium finding in myoblast cell preparation
Source text: The myoblast cell preparation may be cultured in a proliferation medium in the presence of a DNA methyltransferase inhibitor, such as 5-AZA. A DNA methyltransferase inhibitor may be introduced while the myoblast cell preparation is being developed in the proliferation medium. For instance, a DNA methyltransferase inhibitor may be introduced once the myoblast cell preparation is at 50-80% cell confluence by visual inspection. A higher confluence percentage or density may be appropriate, so long as the confluence is not so high that the cells become overcrowded or grow in multiple layers, resulting in spontaneous cell fusion and/or cell death. The DNA methyltransferase inhibitor may be introduced earlier, for instance, at the same time the isolated satellite cells are added to the proliferation medium. […] Concentrations of DNA methyltransferase inhibitor used may vary. For example, the myoblast cell preparation may be cultured in proliferation medium in the presence of 5 μM of 5-AZA. […] The myoblast cell preparation may be cultured in the presence of a DNA methyltransferase inhibitor for a period of time. One appropriate period of time using 5 μM of 5-AZA is 24 hours. As few as 6 hours may be appropriate using 5 μM of 5-AZA.

[2] = test system: CP patient derived myoblast cells; test: Myoblast fusion and myotube formation, immunostaining and Fusion Index; type: cell-based, human; settings: 5 μM, 24 hours pretreatment, 42 hours differentiation
Source text: Myotubes were differentiated using the following methods. Once the appropriate level of cell confluence of 50-80% was obtained for the myoblast cell preparation, fusion and differentiation of myoblasts into myotubes was promoted by switching from a high-serum medium to a low-serum differentiation medium. […] Specifically, the high-serum proliferation medium was made of Ham's F10 medium (Corning Life Sciences, Tewksbury, Mass.) combined with 20% Fetal Bovine Serum (“FBS”) (Gibco brand, Thermo Fischer Scientific, Waltham, Mass.) 10 mg/ml streptomycin, and 100 units/ml penicillin (Gibco), human recombinant bFGF (5 ng/ml) (Becton Dickenson). […] Cell preparations cultured in the low-serum differentiation medium may be analyzed for myotube formation starting from about 24 hours to about 6 weeks after switching from the high-serum to the low-serum medium.
For visual and quantitative analysis by immunostaining, the isolated satellite cell-derived myoblast cell preparations were treated for immunostaining. […] Fluorescence microscopy was performed using an epifluorescence or confocal microscope using the 20× air objective, the 40×, or 63× oil immersion objective and zoom rates between 1 and 3 in sequential scanning mode. […]

[3] = test system: proliferating CP and TD myoblast cultures; test: Global DNA methylation, MethylFlash Methylated DNA Quantification Kit; type: cell-based, human; settings: 5 μM, 24 hours; FIG. 9A
Method: FIG. 9A illustrates global methylation levels of DNA in proliferating CP and TD myoblast cultures that were treated or non-treated with 5-AZA. Methylation levels were measured using a MethylFlash Methylated DNA Quantification Kit (EpiGentek, P-1034-96). Myoblasts were seeded into gelatin-coated 10 cm plates. Myoblast cell preparations from CP and TD study subjects were exposed to 5 μM of 5-AZA in proliferation medium. 5-AZA was introduced while the myoblast cell preparations were being developed in the high-serum medium, once the myoblast cell preparations were at about 60% of cell plate confluence by visual inspection. […] The myoblast cell preparations then had the 5-AZA washed off by switching the myoblast cell preparations each to fresh high-serum medium and further expanded to 90% of confluence. DNA was extracted from these cultures using the “DNA Purification from Cultured Cells” protocol as described in the Gentra Puregene DNA isolation kit (Qiagen, 158388).
In FIG. 9A, global methylation levels of DNA were investigated in proliferating CP and TD myoblast cultures that were treated or non-treated with 5-AZA. Methylation levels were measured using a MethylFlash Methylated DNA Quantification Kit (EpiGentek, P-1034-96). Myoblasts were seeded into gelatin-coated 10 cm plates. Myoblast cell preparations from CP and TD study subjects were exposed to 5 μM of 5-AZA in proliferation medium. […]

[4] = test system: CP and TD myoblast preparations; test: Cell doubling time, xCELLigence RTCA DP; type: cell-based, human; settings: 5 μM, 24 hours; FIG. 9B
Method: FIG. 9B. A cell impedance-measuring xCELLigence RTCA DP instrument was used to quantify rates of “cell doubling time” (a measurement of cell proliferation) in CP and TD myoblast preparations, treated and non-treated with 5-AZA, as illustrated in FIG. 9B. Proliferating myoblasts were treated with 5 μM 5-AZA (Sigma-Aldrich) for 24 hours to induce DNA hypomethylation. Other cell preparations were not treated with 5-AZA to serve as a control. Following treatment, myoblasts were harvested from exponential growth phase cultures by a standardized detachment procedure using 0.05% Trypsin-EDTA and counted. […] Plates were locked in the RTCA DP device in the incubator and the impedance value of each well was automatically monitored by the xCELLigence system and expressed as a Cell Index value (CI). […] CI was recorded every 15 min for the entirety of the period. Cell doubling time was calculated from the exponential phase of the growth curve generated by the CI values using the supplied RTCA software.
A cell impedance-measuring xCELLigence RTCA DP instrument was used to quantify rates of “cell doubling time” (a measurement of cell proliferation) in CP and TD myoblast preparations, treated and non-treated with 5-AZA, as illustrated in FIG. 9B. […] Following treatment, myoblasts were harvested from exponential growth phase cultures by a standardized detachment procedure using 0.05% Trypsin-EDTA and counted. […]

[5] = test system: C2C12 myoblasts; settings: cited from earlier work
[6] = 5 μM for 3 days (Montesano et al.)

For `Nc1ncn([C@@H]2O[C@H](CO)[C@@H](O)[C@H]2O)c(=O)n1` [5-AZA, 5-azacytidine], the myotube growth ([1]; 0.5 μM of 5-AZA) was “not sufficiently concentrated to cause appropriate myotube growth”, the “death of the cells” value ([1]; 50 μM of 5-AZA) was “causes the death of the cells in the myoblast cell preparation” and the “concentrations lethal to cells” value ([1]; human) was ≥ 50 µM. For the same compound, the “myoblast fusion and myotube formation, morphologically” value ([2]; FIG. 4B) was “sufficient to partially restore myoblast fusion and myotube formation”, the “myoblast fusion and myotube formation, quantitatively (Fusion Index)” value ([2]; FIG. 4C) was “sufficient to partially restore myoblast fusion and myotube formation” and the “global methylation levels of DNA” value [3] was “caused global DNA hypomethylation in both CP and TD patients”. The cell doubling time [4] was “resulted in similar myoblast cell doubling times between CP and TD myoblasts”, the “DNA methylation and differentiation” value [5, 6] was “induced DNA hypomethylation and improved differentiation of C2C12 myoblasts” and the cytotoxicity [5, 6] was “without overt signs of cytotoxicity”. For the same compound, the “muscle-specific gene expression, myogenesis and myotube formation” value ([5]; mouse-derived C2C12 muscle cell lines) was “promoted expression of muscle-specific genes, enhanced myogenesis and myotube formation”.
